Measurements: US8017828B2, “Utilization of rare sugars in plant or microorganism” (Shikoku Research Institute Incorporated, priority 2004, dated 2011)
Blank lines part the entries; values can stand above or below the compound they belong to.

Key:
[1] = system: Fusarium oxysporum, Glomerella cingulata, Verticillium dahliae and Botrytlis cinerea; test: Mycelial elongation of plant pathogenic bacteria on agar with rare sugar; format: cell-based; details: 0.05% (w/v) in agar medium, 23° C., 7 days
Protocol: By using as targets, Fusarium oxysporum, Glomerella cingulata, Verticillium dahliae and Botrytlis cinerea, which are typical plant pathogenic bacteria, an effect of a rare sugar on mycelial elongation was examined.
As the test bacterial strains, IFO 31213 strain, IFO 6425 strain, IFO 9765 strain and IFO 9760 strain were used.
After the cultivation, the length of the extending mycelium was measured.

[2] = system: Aspergillus niger, Cladosporium cladosporioides and Penicillium chrysogenum; test: Mycelial elongation of filamentous fungi on agar with rare sugar; format: cell-based; details: 0.05% (w/v) in agar medium, 25° C., 4 days
Protocol: By using as targets, Aspergillus niger, Cladosporium cladosporioides and Penicillium chrysogenum, which are typical filamentous fungi and generally seen in a living environment, an effect of a rare sugar on mycelial elongation was examined.
As the test fungal strains, NBRC 4066 strain, NBRC 4459 strain and NBRC 4626 strain were used.
Each test fungal strain was cultured on a potato dextrose agar medium at 25° C. for 7 days, and one in which the mycelium extended over the surface of the dish was pushed out along with the agar medium in such a manner that the agar medium was in a disc form with a diameter of 1.1 cm, which was placed at the center of a dish filled with an agar medium (1% Bacto agar) supplemented with any of a variety of rare sugars (allitol, D-altrose, L-mannose, L-galactose, D-tagatose, D-sorbose, D-psicose, D-allose, D-glucose and D-fructose) at 0.05% (w/v) and cultured at 25° C. for 4 days. After the cultivation, the length of the mycelium extending on the surface of the culture medium was measured. Two culture media were prepared for each test plot, and the mycelial length represents the average thereof.

[3] = system: chitinase gene; test: Northern blotting of chitinase gene expression in sprayed cut leaves of rough lemon; format: in vivo; details: 0.5 mM sprayed on cut leaves, 2 to 48 hours
Protocol: Cut leaves of rough lemon were treated by spraying each of 0.5 mM L-psicose, L- & D-tagatose and D-sorbose thereon and were let stand for 2, 4, 6, 12, 24 and 48 hours at 24° C. under the dark condition in a moist chamber. Then, from the treated leaves, total RNA was extracted and the expression of genes of lipoxygenase and chitinase was analyzed by Northern blotting. The assays and analyses were repeated at least 3 times in all the treated plots, and equivalent results were obtained.

[4] = system: Pythium ultimum IFO 32426 strain; test: Oospore formation of Pythium ultimum in sugar solution; format: cell-based; details: 0.05% (w/v) sugar solution, 23° C., 4 days
Protocol: With regard to Pythium ultimum that causes damping-off of spinach and the like, an effect of a rare sugar on oospore formation was examined.
First, as the Pythium ultimum, IFO 32426 strain was used, and static culture thereof was carried out with 200 ml of V8 medium at 23° C. for 1 week. The resulting mycelial mat was well washed with sterile water and divided into 16 equal parts with forceps. This mycerial body was disentangled uniformly to form a small piece and immersed in 20 ml of a sugar solution at a concentration of 0.05% (w/v) and let stand at 23° C. for 4 days. […] Further, the same experiment was carried out using Pythium zingiberum IFO 30817 strain.

[5] = system: Salsola komarovii; test: Seed germination, short-time and continuous treatment (Experiment 2); format: in vivo; details: immersed in 1% solution for 24 hours, in the end; DW 28%
Protocol: In order to clarify an effect of a short-time treatment, 50 seeds of Salsola komarovii, tomato (Home Momotaro) and sunny lettuce (Red Wave), and 20 seeds of morning glory (Tairin Zaki Kongo) were immersed in any of deionized water, 1% D-psicose, 1% D-allose and 1% L-galactose for 24 hours (25° C., dark), respectively, then, they were lightly washed with deionized water. Then, the seeds were sown in a dish with a diameter of 9 cm having a filter paper placed therein, and germinated under the same condition by poring 5 to 10 ml of deionized water therein. Further, for the comparison, a continuous treatment with 1% D-psicose was carried out in accordance with the same procedure.

[6] = system: Brassica rapa var. amplexicaulis (variety: “Haru Ichiban”); test: Foliar spraying of sugar on Brassica rapa var. amplexicaulis; format: in vivo; details: 0.5% solution sprayed
Text: Brassica rapa var. amplexicaulis is a vegetable in the Brassica family, and flower buds are harvested and used. As the same species of vegetables, broccoli, cauliflower and the like are exemplified, which are important horticultural crops. As for such a vegetable, development of flower buds has a large effect on the crop yield. Therefore, during the house cultivation of Brassica rapa var. amplexicaulis (variety: “Haru Ichiban”), foliar spraying of a sugar solution at a concentration of 0.5% (w/v) was carried out and effects on the growth and the development of flower buds were examined. The seeds of Brassica rapa var. amplexicaulis were sown in a 128-cell tray on Oct. 23, 2003 and raised for about 20 days. Then, the raised seedlings were transplanted for permanent planting with a planting distance of 40 cm on two rows with an inter row space of 50 cm in separate beds filled with soil for cultivation “Hana to Yasai no Tsuchi (garden soil for flowers and vegetables)” (Kurokawa Shubyo En) on Nov. 12, 2003. The cultivation was carried out by a simple fertigation system, and irrigation was carried out for 1 hour on a daily basis with a 2,000-fold dilution of Hyponex through an irrigation tube. The cultivation was carried out in a vinyl house without heating with side windows open. From Dec. 18, 2003, water or a 0.5% (w/v) sugar solution was sprayed onto the whole plant on a three times weekly basis. As for the types of sugars, D-glucose, D-fructose and D-psicose were used and five plants were cultivated for each test plot. On Feb. 23, 2004, three plants of medium size were harvested and a survey was carried out. The survey items were plant length, stem diameter, number of lateral buds, terminal bud weight, total weight of lateral buds and the like.

[7] = system: Arabidopsis thaliana Lan dsberg erecta (LER); test: Germination of Arabidopsis thaliana with 8 ketoses; format: in vivo; details: 100 mM aqueous solution
Protocol: An effect of 8 types of ketoses on germination of Arabidopsis thaliana LER series which was an experimental plant was examined.
Two sheets of filter paper were placed in a dish with a diameter of 3.5 cm, and 30 seeds of Arabidopsis thaliana Lan dsberg erecta (LER) were sown per dish, and 0.5 mL of a treatment liquid was poured therein. Then, the dishes were placed in an environment control chamber under the condition of a constant temperature of 25° C. and 24-hour day length (fluorescent lamp, 70 μmol/m^2/s). After the sowing, a survey was carried out with regard to the number of seeds that germinated at 24-hour interval. As the treatment liquid, 100 mM, 10 mM and 1 mM aqueous solutions of any of D-fructose, D-psicose, D-tagatose, D-sorbose, L-fructose, L-psicose, L-tagatose and L-sorbose, and distilled water were used. The procedure was repeated three times for the respective treatment liquids.

[8] = system: cherry tomato plant “mini carol”; test: Hydroponic growth of cherry tomato with 0.05 or 0.5 mM sugar, 10 days; format: in vivo; details: 0.5 mM
Protocol: Subsequently, a cherry tomato plant “mini carol” was transplanted for permanent planting to a hydroponic apparatus, and a total of 7 treated plots in which a plot without addition (control plot) was added to 6 treated plots with the use of a nutrient solution supplemented with 0.05 mM or 0.5 mM D-psicose, D-fructose or mannitol were prepared. A survey was carried out with regard to the growth at 10 days after the permanent planting. […] The stem diameter was the smallest in the case of 0.5 mM D-psicose. The number of leaves was the smallest in the case of 0.5 mM D-psicose and 0.5 mM mannitol. The root length was the smallest in the case of 0.5 mM psicose.

[9] = system: Fusarium oxysporum (IFO 31213 strain); format: in vivo, tomato plant (variety: “House Momotaro”)
Protocol: By using a tomato plant and a strain of Fusarium oxysporum, which is a typical pathogenic bacterium of tomato, an effect of D-psicose during infection in a stage of raising seedlings thereof was examined.
To be more specific, seeds of a tomato plant (variety: “House Momotaro”) were subjected to an immersion treatment by immersing them in a 0.01% (w/v) D-psicose solution or a 0.007% (w/v) probenazole solution for 15 minutes while stirring slowly, followed by air-drying on sterile gauze, and then used as treated seeds. In the medium culture for raising seedlings (pete:pearlite:vermiculite=2:1:1), 0.01% (w/v) D-psicose or 0.007% (w/v) probenazole was mixed, and the soil was placed in black polypot plant containers with a diameter of 9 cm, and then, 4 seeds of the above treated seeds were sown in each pot. The seeds (20 seeds in total) were sown in 5 pots for each test plot. After sowing, the pots were placed in a growth chamber at 23° C. and 5,000 Lux (12-hour day length), and raising of seedlings was initiated. At 1 month and 2 months after the initiation of raising of seedlings, a suspension of mycelium of Fusarium oxysporum (IFO 31213 strain) was inoculated around the roots, whereby infection with Fusarium oxysporum was caused. After the inoculation of Fusarium oxysporum, the temperature was raised to 30° C., and cultivation was continued. At about 4 months after sowing, a survey was carried out with regard to the survival rate of plants, the conditions of browning of vascular bundles and roots, the stem diameter and the like.

SMILES: O=C[C@@H](O)[C@H](O)[C@H](O)[C@H](O)CO [D-altrose]
- inhibitory effect on mycelial elongation [1]: the highest inhibitory effect
- effect on mycelial elongation [2]: have an effect of inhibiting mycelial elongation

- induction of the expression of chitinase gene [3]: more strongly than D-psicose
SMILES: O=C(CO)[C@@H](O)[C@@H](O)[C@H](O)CO [D-tagatose]

SMILES: O=C[C@@H](O)[C@H](O)[C@H](O)[C@@H](O)CO [L-galactose]
- oospore formation [4]: inhibited
- germination rate [5]: 34%
- effect on mycelial elongation [2]: have an effect of inhibiting mycelial elongation
- Terminal bud weight ([6]; control (water) 3.0): 9.6 g
- Stem diameter ([6]; control (water) 22.8): 21.7 mm
- Number of lateral buds ([6]; control (water) 32.3): 48.3
- Plant length ([6]; control (water) 49.3): 52.7 cm
- Total weight of lateral buds ([6]; control (water) 235.3): 250.6 g

SMILES: O=C(CO)[C@@H](O)[C@@H](O)[C@@H](O)CO [L-psicose]
- inhibition of germination [7]: not clearly observed

SMILES: OC[C@@H](O)[C@@H](O)[C@H](O)[C@H](O)CO [mannitol, reference compound]
- number of leaves, rank among 7 treated plots [8]: the smallest

SMILES: C=CCOC1=NS(=O)(=O)c2ccccc21 [probenazole, reference compound]
- Vascular bundle browning ratio ([9]; seed immersion (0.01% D-psicose or 0.007% probenazole), no seed treatment 25%): 5%
- Stem diameter ([9]; seed immersion treatment): increased
